# Test results from patent US6737383B1, “Herbicidal oxadiazolidines” (priority 1999, dated 2004).
# Assays:
# bedstraw = assay: Test B pre/postemergence bedstraw; type: in vivo, Galium aparine; conditions: Postemergence
# Summary of the method: (§1)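 Test chemicals in a non-phytotoxic solvent mixture with surfactant were sprayed preemergence onto planted seeds and postemergence onto plants 2 to 18 cm tall (1- to 4-leaf stage). After twelve to sixteen days in a greenhouse, injury was visually rated against untreated controls from 0 (no effect) to 10 (complete control).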
# blackgrass = assay: Test B pre/postemergence blackgrass; type: in vivo, Alopecurus myosuroides
# Summary of the method: as §1
# surinam grass = assay: Test B pre/postemergence surinam grass; type: in vivo, Brachiaria decumbens
# Summary of the method: as §1
# cocklebur = assay: Test B pre/postemergence cocklebur; type: in vivo, Xanthium strumarium
# Summary of the method: as §1
# corn = assay: Test B pre/postemergence corn; type: in vivo, Zea mays
# Summary of the method: as §1
# morningglory = assay: Test B pre/postemergence morningglory; type: in vivo, Ipomoea hederacea
# Summary of the method: as §1
# pigweed = assay: Test B pre/postemergence pigweed; type: in vivo, Amaranthus retroflexus
# Summary of the method: as §1
# rape = assay: Test B pre/postemergence rape; type: in vivo, Brassica napus
# Summary of the method: as §1
# soybean = assay: Test B pre/postemergence soybean; type: in vivo, Glycine max
# Summary of the method: as §1
# sugar beet = assay: Test B pre/postemergence sugar beet; type: in vivo, Beta vulgaris
# Summary of the method: as §1
# velvetleaf = assay: Test B pre/postemergence velvetleaf; type: in vivo, Abutilon theophrasti
# Summary of the method: as §1
# wild oat = assay: Test B pre/postemergence wild oat; type: in vivo, Avena fatua
# Summary of the method: as §1
# purple nutsedge = assay: Test B pre/postemergence purple nutsedge; type: in vivo, Cyperus rotundus
# Summary of the method: as §1
# rice = assay: Test B flood test rice; type: in vivo, Oryza sativa
# Summary of the method: (§2)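 Each value is a visual injury score relative to controls, with 10 meaning complete control and 0 no effect. Evaluation took place twelve to sixteen days after the 2-leaf-stage plants were treated and kept in the greenhouse.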
# smallflower flatsedge = assay: Test B flood test smallflower flatsedge; type: in vivo, Cyperus difformis
# Summary of the method: as §2
# bamyardgrass = assay: Test B flood test barnyardgrass; type: in vivo, Echinochloa crus-galli
# Summary of the method: as §2
# [1] = Postemergence, Rate 250 g/ha, scale 0 to 10
# [2] = Postemergence, Rate 500 g/ha, scale of 0 to 10 where 0 is no effect and 10 is complete control
# [3] = Preemergence, Rate 62 g/ha, scale 0 to 10 (0 no effect, 10 complete control)
# [4] = Preemergence, Rate 125 g/ha, scale of 0 to 10 where 0 is no effect and 10 is complete control
# [5] = Preemergence, Rate 250 g/ha, scale 0 to 10, 0 is no effect, 10 is complete control
# [6] = Preemergence, Rate 500 g/ha, scale 0 to 10, 0 is no effect, 10 is complete control
# [7] = Rate 62 g/ha, Postemergence, scale of 0 to 10 where 0 is no effect and 10 is complete control
# [8] = Rate 125 g/ha, Postemergence, scale 0 to 10, 0 is no effect, 10 is complete control
# [9] = Postemergence block (flood test species), Rate 250 g/ha, scale 0 to 10
# [10] = Postemergence section (flood test species), Rate 500 g/ha, scale of 0 to 10 where 0 is no effect and 10 is complete control
# [11] = Rate 125 g/ha, Postemergence section (flood test species), scale 0 to 10, 0 is no effect, 10 is complete control
structure (smiles),measurement,setting,value
C=CC[Si](C)(C)Cn1c(=O)on(C(=O)N(c2ccc(F)cc2)C(C)C)c1=O [Compound 426],Bedstraw plant response rating,"bedstraw; Rate 250 g/ha, scale 0 to 10",9
same,Bedstraw plant response rating,"bedstraw; Rate 500 g/ha, scale of 0 to 10 where 0 is no effect and 10 is complete control",9
same,Blackgrass plant response rating,blackgrass; [1],8
same,Blackgrass plant response rating,blackgrass; [2],8
same,"Plant response rating, Blackgrass",blackgrass; [3],4
same,"Plant response rating, Blackgrass",blackgrass; [4],6
same,Blackgrass plant response rating,blackgrass; [5],9
same,Blackgrass plant response rating,blackgrass; [6],9
same,Blackgrass plant response rating,blackgrass; [7],3
same,Blackgrass plant response rating,blackgrass; [8],6
same,B. signalgrass plant response rating,"surinam grass; Postemergence, Rate 250 g/ha, scale 0 to 10, 0 no effect, 10 complete control",7
same,B. signalgrass plant response rating,surinam grass; [2],8
same,"Plant response rating, B. signalgrass",surinam grass; [3],4
same,"Plant response rating, B. signalgrass",surinam grass; [4],4
same,B. signalgrass plant response rating,surinam grass; [5],6
same,B. signalgrass plant response rating,"surinam grass; Preemergence, Rate 500 g/ha, scale of 0 to 10 where 0 is no effect and 10 is complete control",8
same,B. signalgrass plant response rating,surinam grass; [7],2
same,B. signalgrass plant response rating,surinam grass; [8],5
same,Cocklebur plant response rating,cocklebur; [1],0
same,Cocklebur plant response rating,cocklebur; [2],0
same,"Plant response rating, Cocklebur",cocklebur; [3],0
same,"Plant response rating, Cocklebur",cocklebur; [4],0
same,Cocklebur plant response rating,cocklebur; [5],0
same,Cocklebur plant response rating,cocklebur; [6],0
same,Cocklebur plant response rating,cocklebur; [7],0
same,Cocklebur plant response rating,cocklebur; [8],0
same,Corn plant response rating,corn; [1],2
same,Corn plant response rating,corn; [2],4
same,"Plant response rating, Corn",corn; [3],0
same,"Plant response rating, Corn",corn; [4],0
same,Corn plant response rating,corn; [5],0
same,Corn plant response rating,corn; [6],6
same,Corn plant response rating,corn; [7],0
same,Corn plant response rating,corn; [8],0
same,Morningglory plant response rating,morningglory; [1],9
same,Morningglory plant response rating,morningglory; [2],9
same,"Plant response rating, Morningglory",morningglory; [3],0
same,"Plant response rating, Morningglory",morningglory; [4],0
same,Morningglory plant response rating,morningglory; [5],0
same,Morningglory plant response rating,morningglory; [6],6
same,Morningglory plant response rating,morningglory; [8],7
same,Redroot pigweed plant response rating,pigweed; [1],5
same,Redroot pigweed plant response rating,pigweed; [2],6
same,"Plant response rating, Redroot pigweed",pigweed; [3],2
same,"Plant response rating, Redroot pigweed",pigweed; [4],4
same,Redroot pigweed plant response rating,pigweed; [5],8
same,Redroot pigweed plant response rating,pigweed; [6],10
same,Redroot pigweed plant response rating,pigweed; [8],0
same,Rape plant response rating,rape; [1],2
same,Rape plant response rating,rape; [2],4
same,"Plant response rating, Rape",rape; [3],0
same,"Plant response rating, Rape",rape; [4],0
same,Rape plant response rating,rape; [5],8
same,Rape plant response rating,rape; [6],10
same,Rape plant response rating,rape; [8],0
same,Soybean plant response rating,soybean; [1],6
same,Soybean plant response rating,soybean; [2],7
same,"Plant response rating, Soybean",soybean; [3],0
same,"Plant response rating, Soybean",soybean; [4],0
same,Soybean plant response rating,soybean; [5],0
same,Soybean plant response rating,soybean; [6],0
same,Soybean plant response rating,soybean; [8],4
same,Sugarbeets plant response rating,sugar beet; [1],3
same,Sugarbeets plant response rating,sugar beet; [2],3
same,"Plant response rating, Sugarbeets",sugar beet; [3],0
same,"Plant response rating, Sugarbeets",sugar beet; [4],3
same,Sugarbeets plant response rating,sugar beet; [5],4
same,Sugarbeets plant response rating,sugar beet; [6],6
same,Sugarbeets plant response rating,sugar beet; [8],3
same,Velvetleaf plant response rating,velvetleaf; [1],1
same,Velvetleaf plant response rating,velvetleaf; [2],2
same,"Plant response rating, Velvetleaf",velvetleaf; [3],0
same,"Plant response rating, Velvetleaf",velvetleaf; [4],2
same,Velvetleaf plant response rating,velvetleaf; [5],2
same,Velvetleaf plant response rating,velvetleaf; [6],5
same,Velvetleaf plant response rating,velvetleaf; [8],0
same,Wild oats plant response rating,wild oat; [1],2
same,Wild oats plant response rating,wild oat; [2],2
same,"Plant response rating, Wild oats",wild oat; [3],2
same,"Plant response rating, Wild oats",wild oat; [4],7
same,Wild oats plant response rating,wild oat; [5],8
same,Wild oats plant response rating,wild oat; [6],10
same,Wild oats plant response rating,wild oat; [8],0
same,Nutsedge plant response rating,purple nutsedge; [1],0
same,Nutsedge plant response rating,purple nutsedge; [2],3
same,"Plant response rating, Nutsedge",purple nutsedge; [3],0
same,"Plant response rating, Nutsedge",purple nutsedge; [4],0
same,Nutsedge plant response rating,purple nutsedge; [5],0
same,Nutsedge plant response rating,purple nutsedge; [6],0
same,Nutsedge plant response rating,purple nutsedge; [8],0
same,Rice plant response rating,rice; [9],0
same,Rice plant response rating,rice; [10],0
same,Rice plant response rating,rice; [11],0
same,S. Flatsedge plant response rating,smallflower flatsedge; [9],0
same,S. Flatsedge plant response rating,smallflower flatsedge; [10],0
same,S. Flatsedge plant response rating,smallflower flatsedge; [11],0
same,Barnyardgrass plant response rating,bamyardgrass; [9],0
same,Barnyardgrass plant response rating,bamyardgrass; [10],0
same,Barnyardgrass plant response rating,"bamyardgrass; Rate 62 g/ha, Postemergence (flood test species), scale of 0 to 10 where 0 is no effect and 10 is complete control",0
same,Barnyardgrass plant response rating,bamyardgrass; [11],0
